According to patent US6914045B2, “Glycopeptide antibiotics” (Wyeth Holdings Corporation, priority 2001, dated 2005):
Values after ≈ are worked out from the molar mass of the structure shown.

How the values were obtained:
Assay in all cases: in vitro antibacterial evaluation, MIC by broth dilution
Assay type in all cases: cell-based
Escherichia coli = test system: Escherichia coli
Outline: (§1)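 Broth dilution per NCCLS M7-A2 in Mueller-Hinton II medium, inoculum 5×10^5 CFU/mL, antibiotic range 64-0.06 μg/mL. MIC taken as lowest concentration inhibiting growth; Gram-positive panel includes recent clinical isolates resistant to methicillin, penicillin and/or vancomycin.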

Enterococcus sp. = details: broth dilution, 18 hours at 35° C.
Outline: as §1

Staphylococcus sp. = details: broth dilution, 18 hours at 35° C.; for MIC Staphylococcus aureus (GC 1131): strain GC 1131
Outline: as §1

Streptococcus sp. = details: broth dilution, 18 hours at 35° C.
Outline: as §1

MIC Escherichia coli (ATCC 25922) (Escherichia coli; strain ATCC 25922, 18 hours at 35° C.): >64 µg/mL
MIC Escherichia coli (GC 4559) (Escherichia coli; strain GC 4559, 18 hours at 35° C.): >64 µg/mL
MIC Escherichia coli (GC 4560) (Escherichia coli; strain GC 4560, 18 hours at 35° C.): 4 µg/mL (≈ 2.83 µM)
MIC Enterococcus avium (GC 4558) (Enterococcus sp.; Enterococcus avium (GC 4558)): 32 µg/mL (≈ 22.6 µM)
MIC Enterococcus faecalis (ATCC 29212) (Enterococcus sp.; Enterococcus faecalis (ATCC 29212)): 32 µg/mL (≈ 22.6 µM)
MIC Enterococcus faecalis (GC 2242) (Enterococcus sp.; Enterococcus faecalis (GC 2242)): 32 µg/mL (≈ 22.6 µM)
MIC Enterococcus faecalis (GC 2691) (Enterococcus sp.; Enterococcus faecalis (GC 2691)): 32 µg/mL (≈ 22.6 µM)
MIC Enterococcus faecalis (GC 3059) (Enterococcus sp.; Enterococcus faecalis (GC 3059)): 64 µg/mL (≈ 45.3 µM)
MIC Enterococcus faecalis (GC 4552) (Enterococcus sp.; Enterococcus faecalis (GC 4552)): 32 µg/mL (≈ 22.6 µM)
MIC Enterococcus faecalis (GC 4553) (Enterococcus sp.; Enterococcus faecalis (GC 4553)): 32 µg/mL (≈ 22.6 µM)
MIC Enterococcus faecalis (GC 4554) (Enterococcus sp.; Enterococcus faecalis (GC 4554)): 64 µg/mL (≈ 45.3 µM)
MIC Enterococcus faecalis (GC 6189) (Enterococcus sp.; Enterococcus faecalis (GC 6189)): 32 µg/mL (≈ 22.6 µM)
MIC Enterococcus faecium (GC 2243) (Enterococcus sp.; Enterococcus faecium (GC 2243)): 64 µg/mL (≈ 45.3 µM)
MIC Enterococcus faecium (GC 4556) (Enterococcus sp.; Enterococcus faecium (GC 4556)): 32 µg/mL (≈ 22.6 µM)
MIC Enterococcus faecium (GC 4557) (Enterococcus sp.; Enterococcus faecium (GC 4557)): 8 µg/mL (≈ 5.66 µM)
MIC Enterococcus faecalis (ATCC 29212) (Enterococcus sp.; strain ATCC 29212): 32 µg/mL (≈ 22.6 µM)
MIC Enterococcus faecalis (GC 2242) (Enterococcus sp.; strain GC 2242): 32 µg/mL (≈ 22.6 µM)
MIC Enterococcus faecium (GC 2243) (Enterococcus sp.; strain GC 2243): 64 µg/mL (≈ 45.3 µM)
MIC Enterococcus faecalis (GC 2691) (Enterococcus sp.; strain GC 2691): 32 µg/mL (≈ 22.6 µM)
MIC Enterococcus faecalis (GC 3059) (Enterococcus sp.; strain GC 3059): 64 µg/mL (≈ 45.3 µM)
MIC Enterococcus faecalis (GC 4552) (Enterococcus sp.; strain GC 4552): 32 µg/mL (≈ 22.6 µM)
MIC Enterococcus faecalis (GC 4553) (Enterococcus sp.; strain GC 4553): 32 µg/mL (≈ 22.6 µM)
MIC Enterococcus faecalis (GC 4554) (Enterococcus sp.; strain GC 4554): 64 µg/mL (≈ 45.3 µM)
MIC Enterococcus faecium (GC 4556) (Enterococcus sp.; strain GC 4556): 32 µg/mL (≈ 22.6 µM)
MIC Enterococcus faecium (GC 4557) (Enterococcus sp.; strain GC 4557): 8 µg/mL (≈ 5.66 µM)
MIC Enterococcus avium (GC 4558) (Enterococcus sp.; strain GC 4558): 32 µg/mL (≈ 22.6 µM)
MIC Enterococcus faecalis (GC 6189) (Enterococcus sp.; strain GC 6189): 32 µg/mL (≈ 22.6 µM)
MIC Staphylococcus aureus (GC 1131) (Staphylococcus sp.; inoculum 5×10^5 CFU/mL): 16 µg/mL (≈ 11.3 µM)
MIC Staphylococcus aureus (ATCC 29213) (Staphylococcus sp.; strain ATCC 29213): 16 µg/mL (≈ 11.3 µM)
MIC Staphylococcus aureus (GC 1131) (Staphylococcus sp.): 16 µg/mL (≈ 11.3 µM)
MIC Staphylococcus aureus (GC 3051) (Staphylococcus sp.; strain GC 3051): 16 µg/mL (≈ 11.3 µM)
MIC Staphylococcus aureus (GC 3053) (Staphylococcus sp.; strain GC 3053): 16 µg/mL (≈ 11.3 µM)
MIC Staphylococcus aureus (GC 4541) (Staphylococcus sp.; strain GC 4541): 8 µg/mL (≈ 5.66 µM)
MIC Staphylococcus aureus (GC 4542) (Staphylococcus sp.; strain GC 4542): 16 µg/mL (≈ 11.3 µM)
MIC Staphylococcus aureus-SMITH (GC 4543) (Staphylococcus sp.; strain GC 4543): 8 µg/mL (≈ 5.66 µM)
MIC Staphylococcus aureus (GC 4544) (Staphylococcus sp.; strain GC 4544): 16 µg/mL (≈ 11.3 µM)
MIC Staphylococcus aureus (GC 4545) (Staphylococcus sp.; strain GC 4545): 16 µg/mL (≈ 11.3 µM)
MIC Coagulase Negative Staphylococcus (GC 4547) (Staphylococcus sp.; strain GC 4547): 8 µg/mL (≈ 5.66 µM)
MIC Coagulase Negative Staphylococcus (GC 4548) (Staphylococcus sp.; strain GC 4548): 4 µg/mL (≈ 2.83 µM)
MIC Coagulase Negative Staphylococcus (GC 4549) (Staphylococcus sp.; strain GC 4549): 8 µg/mL (≈ 5.66 µM)
MIC Coagulase Negative Staphylococcus (GC 4551) (Staphylococcus sp.; strain GC 4551): 8 µg/mL (≈ 5.66 µM)
MIC Coagulase Negative Staphylococcus (GC 6257) (Staphylococcus sp.; strain GC 6257): 4 µg/mL (≈ 2.83 µM)
MIC Staphylococcus aureus-SMITH (GC 4543) (Staphylococcus sp.; strain SMITH GC 4543): 8 µg/mL (≈ 5.66 µM)
MIC Streptococcus agalactiae (GC 4564) (Streptococcus sp.; Streptococcus agalactiae (GC 4564)): 4 µg/mL (≈ 2.83 µM)
MIC Streptococcus pneumoniae (ATCC 6301) (Streptococcus sp.; Streptococcus pneumoniae (ATCC 6301)): 2 µg/mL (≈ 1.42 µM)
MIC Streptococcus pneumoniae (GC 1894) (Streptococcus sp.; Streptococcus pneumoniae (GC 1894)): 1 µg/mL (≈ 0.708 µM)
MIC Streptococcus pneumoniae (GC 4565) (Streptococcus sp.; Streptococcus pneumoniae (GC 4565)): 2 µg/mL (≈ 1.42 µM)
MIC Streptococcus pyogenes (GC 4563) (Streptococcus sp.; Streptococcus pyogenes (GC 4563)): 4 µg/mL (≈ 2.83 µM)
MIC Streptococcus pneumoniae (ATCC 6301) (Streptococcus sp.; strain ATCC 6301): 2 µg/mL (≈ 1.42 µM)
MIC Streptococcus pneumoniae (GC 1894) (Streptococcus sp.; strain GC 1894): 1 µg/mL (≈ 0.708 µM)
MIC Streptococcus pyogenes (GC 4563) (Streptococcus sp.; strain GC 4563): 4 µg/mL (≈ 2.83 µM)
MIC Streptococcus agalactiae (GC 4564) (Streptococcus sp.; strain GC 4564): 4 µg/mL (≈ 2.83 µM)
MIC Streptococcus pneumoniae (GC 4565) (Streptococcus sp.; strain GC 4565): 2 µg/mL (≈ 1.42 µM)
Structure (SMILES): COc1cccc(C2OC3C(OC4C(CO)OC(Oc5ccc(CC6NC(=O)C(C(C)c7ccccc7)NC(=O)CNC(=O)C(CO)NC(=O)C(C(O)C7CNC(=N)N7C7OC(CO)C(O)C(O)C7O)NC(=O)C(C(O)C7CNC(=N)N7)NC6=O)cc5)C(O)C4O)OC(CO)C(O)C3O2)c1 (single isomer, unassigned) [Example 137b, Cyclo[glycyl-β-methylphenylalanyl-O-[4-O-[2,3-O-(3-methoxybenzylidene)hexopyranosyl]-hexopyranosyl]tyrosyl-3-(2-iminoimidazolidin-4-yl)seryl-3-(3-hexopyranosyl-2-iminoimidazolidin-4-yl)serylseryl]]
MIC Staphylococcus haemolyticus (GC 4546) (Staphylococcus sp.; strain GC 4546): 8 µg/mL (≈ 5.66 µM)
